From patent US9682995B2, “Amino-substituted isothiazoles” (BAYER PHARMA AKTIENGESELLSCHAFT, priority 2013, dated 2017)

Key:
Assay in all cases: Kinase Profiling (KINOMEscan)
Format in all cases: binding
[1] = molecular target: 456 kinases (of these 395 non-mutant kinases) (Homo sapiens, UniProt Q13554); conditions: CAMK2B; 10 μM
[2] = molecular target: 456 kinases (of these 395 non-mutant kinases) (Homo sapiens, UniProt Q96PY6); conditions: NEK1; 10 μM
[3] = molecular target: 456 kinases (of these 395 non-mutant kinases) (Homo sapiens, UniProt Q00532); conditions: CDKL1; 10 μM
[4] = molecular target: 456 kinases (of these 395 non-mutant kinases) (Homo sapiens, UniProt P27037); conditions: ACVR2A; 10 μM
[5] = molecular target: 456 kinases (of these 395 non-mutant kinases) (Homo sapiens, UniProt P27448); conditions: MARK3; 10 μM
[6] = molecular target: 456 kinases (of these 395 non-mutant kinases) (Homo sapiens, UniProt O75460); conditions: ERN1; 10 μM
[7] = molecular target: 456 kinases (of these 395 non-mutant kinases) (Homo sapiens, UniProt Q92630); conditions: DYRK2; 10 μM
[8] = molecular target: 456 kinases (of these 395 non-mutant kinases) (Homo sapiens, UniProt Q9NY57); conditions: YANK2; 10 μM
[9] = molecular target: 456 kinases (of these 395 non-mutant kinases) (Homo sapiens, UniProt P06239); conditions: LCK; 10 μM
[10] = molecular target: 456 kinases (of these 395 non-mutant kinases) (Homo sapiens, UniProt Q99558); conditions: NIK; 10 μM
[11] = molecular target: 456 kinases (of these 395 non-mutant kinases) (Homo sapiens, UniProt O15264); conditions: p38-delta; 10 μM
[12] = molecular target: 456 kinases (of these 395 non-mutant kinases) (Homo sapiens, UniProt P49137); conditions: MAPKAPK2; 10 μM
[13] = molecular target: 456 kinases (of these 395 non-mutant kinases) (Homo sapiens, UniProt O14733); conditions: MKK7; 10 μM
[14] = molecular target: 456 kinases (of these 395 non-mutant kinases) (Homo sapiens, UniProt O75116); conditions: ROCK2; 10 μM
[15] = molecular target: 456 kinases (of these 395 non-mutant kinases) (Homo sapiens, UniProt Q8IW41); conditions: MAPKAPK5; 10 μM
[16] = molecular target: 456 kinases (of these 395 non-mutant kinases) (Homo sapiens, UniProt P43405); conditions: SYK; 10 μM
[17] = molecular target: 456 kinases (of these 395 non-mutant kinases) (Homo sapiens, UniProt Q16584); conditions: MLK3; 10 μM
[18] = molecular target: 456 kinases (of these 395 non-mutant kinases) (Homo sapiens, UniProt O15530); conditions: PDPK1; 10 μM
[19] = molecular target: 456 kinases (of these 395 non-mutant kinases) (Homo sapiens, UniProt Q16620); conditions: TRKB; 10 μM
[20] = molecular target: 456 kinases (of these 395 non-mutant kinases) (Homo sapiens, UniProt P54764); conditions: EPHA4; 10 μM
[21] = molecular target: 456 kinases (of these 395 non-mutant kinases) (Homo sapiens, UniProt P36888, N841I); conditions: FLT3(N841I); 10 μM
[22] = molecular target: 456 kinases (of these 395 non-mutant kinases) (Homo sapiens, UniProt P10721); conditions: 10 μM
[23] = molecular target: 456 kinases (of these 395 non-mutant kinases) (Homo sapiens, UniProt P07333); conditions: 10 μM
[24] = molecular target: 456 kinases (of these 395 non-mutant kinases) (Homo sapiens, UniProt Q13177); conditions: PAK2; 10 μM
[25] = molecular target: 456 kinases (of these 395 non-mutant kinases) (Homo sapiens, UniProt Q5S007, G2019S); conditions: LRRK2(G2019S); 10 μM
[26] = molecular target: 456 kinases (of these 395 non-mutant kinases) (Homo sapiens, UniProt Q96BR1); conditions: SGK3; 10 μM
[27] = molecular target: 456 kinases (of these 395 non-mutant kinases) (Homo sapiens, UniProt P00533, DEL746-750); conditions: EGFR(E746-A750del); 10 μM
[28] = molecular target: 456 kinases (of these 395 non-mutant kinases) (Homo sapiens, UniProt P45984); conditions: JNK2; 10 μM
[29] = molecular target: 456 kinases (of these 395 non-mutant kinases) (Homo sapiens, UniProt Q8N5S9); conditions: CAMKK1; 10 μM
[30] = molecular target: 456 kinases (of these 395 non-mutant kinases) (Homo sapiens, UniProt P36888, D835Y); conditions: FLT3(D835Y); 10 μM
[31] = molecular target: 456 kinases (of these 395 non-mutant kinases) (Homo sapiens, UniProt P14616); conditions: INSRR; 10 μM

Chain of 456 kinases (of these 395 non-mutant kinases) (Homo sapiens, UniProt P07333) (P07333 20-972 limits assumed, change not shown): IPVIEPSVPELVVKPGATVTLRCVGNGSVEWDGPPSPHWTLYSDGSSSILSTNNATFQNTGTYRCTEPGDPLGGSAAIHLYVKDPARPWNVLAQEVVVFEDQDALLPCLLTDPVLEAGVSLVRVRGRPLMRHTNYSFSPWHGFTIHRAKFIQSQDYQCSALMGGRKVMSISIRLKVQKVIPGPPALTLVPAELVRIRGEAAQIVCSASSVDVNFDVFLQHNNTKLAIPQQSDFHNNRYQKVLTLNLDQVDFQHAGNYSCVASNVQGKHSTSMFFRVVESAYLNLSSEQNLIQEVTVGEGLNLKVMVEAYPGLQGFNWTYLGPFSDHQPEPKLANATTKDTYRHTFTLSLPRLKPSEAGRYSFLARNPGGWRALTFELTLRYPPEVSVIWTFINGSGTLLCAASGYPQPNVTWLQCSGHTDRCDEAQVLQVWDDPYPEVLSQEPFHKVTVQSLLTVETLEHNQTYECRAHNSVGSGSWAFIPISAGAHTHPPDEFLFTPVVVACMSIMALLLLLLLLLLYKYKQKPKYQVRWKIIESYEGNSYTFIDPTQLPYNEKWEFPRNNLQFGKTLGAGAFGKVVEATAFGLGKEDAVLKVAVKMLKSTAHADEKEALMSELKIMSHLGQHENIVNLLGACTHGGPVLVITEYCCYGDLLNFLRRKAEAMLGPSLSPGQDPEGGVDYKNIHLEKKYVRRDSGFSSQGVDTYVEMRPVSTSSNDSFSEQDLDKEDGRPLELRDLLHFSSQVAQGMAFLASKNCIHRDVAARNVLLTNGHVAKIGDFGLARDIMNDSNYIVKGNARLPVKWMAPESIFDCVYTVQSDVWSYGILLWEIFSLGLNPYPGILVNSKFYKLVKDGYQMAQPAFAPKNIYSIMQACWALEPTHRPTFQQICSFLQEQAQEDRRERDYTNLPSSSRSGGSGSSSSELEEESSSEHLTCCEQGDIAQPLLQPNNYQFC
Chain of 456 kinases (of these 395 non-mutant kinases) (Homo sapiens, UniProt P10721) (P10721 26-976 limits assumed, change not shown): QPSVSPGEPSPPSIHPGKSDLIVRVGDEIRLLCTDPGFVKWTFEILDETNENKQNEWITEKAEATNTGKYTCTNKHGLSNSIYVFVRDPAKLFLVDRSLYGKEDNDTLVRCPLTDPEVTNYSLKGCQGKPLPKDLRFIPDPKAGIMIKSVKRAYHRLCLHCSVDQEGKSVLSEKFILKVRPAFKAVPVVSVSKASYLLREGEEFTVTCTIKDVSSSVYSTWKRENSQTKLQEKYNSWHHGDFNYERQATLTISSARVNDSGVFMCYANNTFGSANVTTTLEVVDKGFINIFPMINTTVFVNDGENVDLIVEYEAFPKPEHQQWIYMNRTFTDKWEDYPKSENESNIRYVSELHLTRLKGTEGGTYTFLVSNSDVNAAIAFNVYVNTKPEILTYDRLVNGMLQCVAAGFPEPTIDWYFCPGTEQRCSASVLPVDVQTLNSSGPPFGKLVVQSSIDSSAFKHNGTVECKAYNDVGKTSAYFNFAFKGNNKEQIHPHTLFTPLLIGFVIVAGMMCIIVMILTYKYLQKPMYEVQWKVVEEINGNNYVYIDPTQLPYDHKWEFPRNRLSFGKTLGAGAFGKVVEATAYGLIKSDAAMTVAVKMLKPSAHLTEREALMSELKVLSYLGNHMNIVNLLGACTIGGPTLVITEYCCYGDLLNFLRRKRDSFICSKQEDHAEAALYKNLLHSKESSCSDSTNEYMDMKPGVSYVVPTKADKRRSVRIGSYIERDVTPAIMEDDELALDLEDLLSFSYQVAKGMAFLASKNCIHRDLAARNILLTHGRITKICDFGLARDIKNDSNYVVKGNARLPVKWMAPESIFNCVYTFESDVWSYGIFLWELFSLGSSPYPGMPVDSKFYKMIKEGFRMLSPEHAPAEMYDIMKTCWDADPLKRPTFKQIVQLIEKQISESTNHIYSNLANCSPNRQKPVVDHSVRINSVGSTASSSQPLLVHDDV
Chain of 456 kinases (of these 395 non-mutant kinases) (Homo sapiens, UniProt P06239) (P06239 2-509 limits assumed, change not shown): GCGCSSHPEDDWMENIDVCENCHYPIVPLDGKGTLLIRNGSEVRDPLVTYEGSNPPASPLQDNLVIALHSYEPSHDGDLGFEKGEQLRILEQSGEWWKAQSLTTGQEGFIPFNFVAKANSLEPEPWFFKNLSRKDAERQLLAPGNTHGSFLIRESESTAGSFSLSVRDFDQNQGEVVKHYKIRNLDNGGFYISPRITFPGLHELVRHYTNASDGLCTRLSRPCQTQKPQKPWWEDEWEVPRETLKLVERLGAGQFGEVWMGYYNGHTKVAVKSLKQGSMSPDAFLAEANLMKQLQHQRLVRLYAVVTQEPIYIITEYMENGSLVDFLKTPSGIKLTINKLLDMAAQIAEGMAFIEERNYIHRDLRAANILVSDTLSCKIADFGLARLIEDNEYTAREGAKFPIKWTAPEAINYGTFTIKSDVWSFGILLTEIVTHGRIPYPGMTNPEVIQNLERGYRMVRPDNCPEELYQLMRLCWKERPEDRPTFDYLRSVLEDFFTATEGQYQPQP
Chain of 456 kinases (of these 395 non-mutant kinases) (Homo sapiens, UniProt O75460) (O75460 19-977 limits assumed, change not shown): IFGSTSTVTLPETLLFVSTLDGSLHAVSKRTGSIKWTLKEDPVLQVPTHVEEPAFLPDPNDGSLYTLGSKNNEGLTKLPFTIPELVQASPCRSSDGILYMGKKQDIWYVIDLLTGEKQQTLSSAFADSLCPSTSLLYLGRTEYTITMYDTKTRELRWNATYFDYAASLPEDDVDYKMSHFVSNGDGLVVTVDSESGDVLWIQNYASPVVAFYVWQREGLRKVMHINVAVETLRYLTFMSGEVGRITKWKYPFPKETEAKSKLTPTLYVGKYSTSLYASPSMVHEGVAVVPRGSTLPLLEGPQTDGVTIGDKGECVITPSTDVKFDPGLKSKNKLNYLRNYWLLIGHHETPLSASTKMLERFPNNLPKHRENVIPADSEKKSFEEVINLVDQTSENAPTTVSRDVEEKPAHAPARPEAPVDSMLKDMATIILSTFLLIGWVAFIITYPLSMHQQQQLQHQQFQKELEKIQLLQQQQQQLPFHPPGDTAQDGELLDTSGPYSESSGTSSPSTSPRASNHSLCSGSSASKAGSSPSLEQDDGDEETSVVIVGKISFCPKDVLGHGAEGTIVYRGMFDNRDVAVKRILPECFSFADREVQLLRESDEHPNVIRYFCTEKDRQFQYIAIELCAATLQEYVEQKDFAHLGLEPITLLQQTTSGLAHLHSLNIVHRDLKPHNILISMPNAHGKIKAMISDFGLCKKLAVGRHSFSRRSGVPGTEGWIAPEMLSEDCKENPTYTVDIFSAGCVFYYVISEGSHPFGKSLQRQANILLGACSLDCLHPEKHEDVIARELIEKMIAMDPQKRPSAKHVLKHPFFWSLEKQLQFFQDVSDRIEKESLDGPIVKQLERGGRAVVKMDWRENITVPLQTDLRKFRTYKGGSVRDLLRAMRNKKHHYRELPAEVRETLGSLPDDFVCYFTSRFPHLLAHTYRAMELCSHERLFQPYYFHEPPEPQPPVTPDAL
Chain of 456 kinases (of these 395 non-mutant kinases) (Homo sapiens, UniProt Q13177) (Q13177 2-524 limits assumed, stated change not applied): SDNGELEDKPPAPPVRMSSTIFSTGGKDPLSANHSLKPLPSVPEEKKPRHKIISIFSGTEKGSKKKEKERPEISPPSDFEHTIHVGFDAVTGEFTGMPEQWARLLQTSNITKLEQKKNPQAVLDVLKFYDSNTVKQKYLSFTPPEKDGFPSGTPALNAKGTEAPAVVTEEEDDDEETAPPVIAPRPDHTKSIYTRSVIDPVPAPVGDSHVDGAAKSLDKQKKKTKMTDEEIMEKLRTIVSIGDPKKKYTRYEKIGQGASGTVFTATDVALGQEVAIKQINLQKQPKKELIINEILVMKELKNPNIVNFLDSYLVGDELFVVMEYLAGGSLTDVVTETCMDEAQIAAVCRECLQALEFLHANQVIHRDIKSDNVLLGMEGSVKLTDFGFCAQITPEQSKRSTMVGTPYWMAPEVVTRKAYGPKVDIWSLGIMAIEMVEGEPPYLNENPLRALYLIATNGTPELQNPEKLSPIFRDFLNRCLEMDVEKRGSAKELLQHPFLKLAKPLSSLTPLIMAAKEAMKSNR
Chain of 456 kinases (of these 395 non-mutant kinases) (Homo sapiens, UniProt P54764) (P54764 20-986 limits assumed, stated change not applied): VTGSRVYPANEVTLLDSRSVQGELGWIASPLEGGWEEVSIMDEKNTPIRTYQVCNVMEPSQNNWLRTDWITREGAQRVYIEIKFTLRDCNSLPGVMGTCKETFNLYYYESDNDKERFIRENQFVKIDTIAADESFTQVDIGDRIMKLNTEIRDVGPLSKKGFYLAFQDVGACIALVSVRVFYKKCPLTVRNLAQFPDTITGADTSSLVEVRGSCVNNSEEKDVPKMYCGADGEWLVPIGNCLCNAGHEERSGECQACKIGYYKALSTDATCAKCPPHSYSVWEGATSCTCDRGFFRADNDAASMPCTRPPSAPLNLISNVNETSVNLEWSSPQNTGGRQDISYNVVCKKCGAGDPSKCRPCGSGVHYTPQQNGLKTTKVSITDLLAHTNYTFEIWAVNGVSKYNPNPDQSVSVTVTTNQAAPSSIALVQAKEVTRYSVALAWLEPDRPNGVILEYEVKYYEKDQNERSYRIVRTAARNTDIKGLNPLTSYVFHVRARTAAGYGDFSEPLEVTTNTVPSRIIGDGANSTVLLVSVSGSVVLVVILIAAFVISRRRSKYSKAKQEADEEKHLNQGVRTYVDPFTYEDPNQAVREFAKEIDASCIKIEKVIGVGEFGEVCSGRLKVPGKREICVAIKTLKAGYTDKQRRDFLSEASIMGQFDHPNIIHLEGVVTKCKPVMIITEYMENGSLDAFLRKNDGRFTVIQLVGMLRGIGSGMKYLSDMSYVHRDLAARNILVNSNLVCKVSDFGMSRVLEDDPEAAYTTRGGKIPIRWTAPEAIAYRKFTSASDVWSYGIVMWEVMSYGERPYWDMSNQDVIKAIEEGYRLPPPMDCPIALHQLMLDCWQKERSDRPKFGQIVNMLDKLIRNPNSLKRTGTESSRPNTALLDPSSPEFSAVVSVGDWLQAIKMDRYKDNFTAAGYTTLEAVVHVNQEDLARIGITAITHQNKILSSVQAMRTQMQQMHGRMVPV

In the case of `CCc1ccccc1NC(=O)c1c(C)nsc1Nc1cnc2cc(F)ccc2n1` [Example 20, N-(2-Ethylphenyl)-5-[(6-fluoroquinoxalin-2-yl)amino]-3-methyl-1,2-thiazole-4-carboxamide], the “% Ctrl @ 10 μM” value [1] is reported as 82 % Ctrl, the “% Ctrl @ 10 μM” value [2] is reported as 100 % Ctrl and the “% Ctrl @ 10 μM” value [3] is reported as 100 % Ctrl. The “% Ctrl @ 10 μM” value [4] was 94 % Ctrl, the “% Ctrl @ 10 μM” value [5] was 93 % Ctrl and the “% Ctrl @ 10 μM” value [6] was 100 % Ctrl. For the same molecule, the “% Ctrl @ 10 μM” value [7] was 96 % Ctrl, the “% Ctrl @ 10 μM” value [8] was 100 % Ctrl and the “% Ctrl @ 10 μM” value [9] was 94 % Ctrl. For the same molecule, the “% Ctrl @ 10 μM” value [10] was 96 % Ctrl, the “% Ctrl @ 10 μM” value [11] was 100 % Ctrl and the “% Ctrl @ 10 μM” value [12] was 89 % Ctrl. The “% Ctrl @ 10 μM” value [13] was 100 % Ctrl, the “% Ctrl @ 10 μM” value [14] was 100 % Ctrl and the “% Ctrl @ 10 μM” value [15] was 100 % Ctrl. The “% Ctrl @ 10 μM” value [16] was 90 % Ctrl, the “% Ctrl @ 10 μM” value [17] was 90 % Ctrl and the “% Ctrl @ 10 μM” value [18] was 86 % Ctrl. The “% Ctrl @ 10 μM” value [19] was 90 % Ctrl, the “% Ctrl @ 10 μM” value [20] was 100 % Ctrl and the “% Ctrl @ 10 μM” value [21] was 84 % Ctrl. For the same molecule, the “% Ctrl @ 10 μM” value ([22]; KIT-autoinhibited) was 100 % Ctrl, the “% Ctrl @ 10 μM” value ([22]; KIT) was 98 % Ctrl and the “% Ctrl @ 10 μM” value ([23]; CSF1R-autoinhibited) was 91 % Ctrl. For the same molecule, the “% Ctrl @ 10 μM” value ([23]; CSF1R) was 100 % Ctrl, the “% Ctrl @ 10 μM” value [24] was 100 % Ctrl and the “% Ctrl @ 10 μM” value [25] was 92 % Ctrl. For the same molecule, the “% Ctrl @ 10 μM” value [26] was 100 % Ctrl, the “% Ctrl @ 10 μM” value [27] was 100 % Ctrl and the “% Ctrl @ 10 μM” value [28] was 100 % Ctrl. The “% Ctrl @ 10 μM” value [29] was 80 % Ctrl, the “% Ctrl @ 10 μM” value [30] was 100 % Ctrl and the “% Ctrl @ 10 μM” value [31] was 76 % Ctrl.
